Patent publication US20060110769A1, “Regulation of novel human prolyl 4-hydroxylases” (Bayer Aktiengesellschaft, priority 2001, published 2006)

Tested on: human prolyl 4-hydroxylase
Test: Expression of human prolyl 4-hydroxylase by Western blotting in oligonucleotide-treated HCT116 cells
Assay type: cell-based
Settings: HCT116, 10 μM once per day for seven days
Method: The cell line used for testing is the human colon cancer cell line HCT116. Cells are cultured in RPMI-1640 with 10-15% fetal calf serum at a concentration of 10,000 cells per milliliter in a volume of 0.5 ml and kept at 37° C. in a 95% air/5% CO2 atmosphere.
Phosphorothioate oligoribonucleotides are synthesized on an Applied Biosystems Model 380B DNA synthesizer using phosphoroamidite chemistry. A sequence of 24 bases complementary to the nucleotides at position 1 to 24 of SEQ ID NO:1 or SEQ ID NO:3 is used as the test oligonucleotide. As a control, another (random) sequence is used: 5′-TCAACTGACTAGATGTACATGGAC-3′ (SEQ ID NO:11). Following assembly and deprotection, oligonucleotides are ethanol-precipitated twice, dried, and suspended in phosphate buffered saline at the desired concentration. Purity of the oligonucleotides is tested by capillary gel electrophoresis and ion exchange HPLC. The purified oligonucleotides are added to the culture medium at a concentration of 10 μM once per day for seven days.
This effect is not observed with the control oligonucleotide. After 3 to 7 days, the number of cells in the cultures is counted using an automatic cell counter. The number of cells in cultures treated with the test oligonucleotide (expressed as 100%) is compared with the number of cells in cultures treated with the control oligonucleotide.

Substance: 5′-TCAACTGACTAGATGTACATGGAC-3′ (TCAACTGACTAGATGTACATGGAC; listed as DNA, chemistry not given here) [control oligonucleotide]
- expression of human prolyl 4-hydroxylase as determined by Western blotting: not observed
